What was measured:
[1] = tested on: mitochondria isolated from HL-60 cells; assay: MitoSox Red ROS assay in isolated mitochondria; assay type: cell-based, human; conditions: HL-60-derived mitochondria, 0.2 μM and 1 μM, 30 minutes
Description: Mitochondria isolated from PBMCs or from HL-60 cells were treated for 30 minutes with either DMSO, free copper (CuCl2) at the concentrations of 0.2 μM and 1 μM, disulfiram-Cu complex (DSF-Cu) at the concentrations of 0.2 μM and 1 μM, and elesclomol-Cu complex at the concentrations of 0.2 μM and 1 μM. Subsequent to incubation, ROS levels were measured by MitoSox Red. The results of the MitoSox Red assay are shown in FIG. 2 as mean±SD of experiments with PBMCs isolated from three independent donors or with three individual experiments with HL-60.

[2] = Pharmacokinetics of I.V. bolus and continuous infusion (Alzet pump) in mice; assay type: in vivo, Mouse
Description: (§2) Mice received elesclomol salt administered in a single I.V. bolus dose of 50 mg/kg. Mice also received elesclomol salt administered by continuous infusion via Alzet pump. The pump was filled with a 40 mg/mL solution of elesclomol salt, and the solution was administered at 1 ml/hr, for a total daily dose of 32 mg/kg/day, based on average body weight of 30 g. The solution was delivered continuously for 7 days, and exposure was calculated from plasma levels collected at 70 hours post pump implantation.

[3] = tested on: HL-60 cells; assay: Subcellular copper content by BCA assay after elesclomol-Cu treatment; assay type: cell-based, human; conditions: HL-60 cells treated for 2 hours
Description: (§1) Human peripheral blood mononuclear cells (PBMCs) from 3 independent donors and human promyelotic tumor cell line HL-60 were treated with the elesclomol-Cu complex for 2 hours. Cells were subsequently fractionated into cytosolic, nuclear or mitochondrial fractions and the subcellular copper content was determined by BCA assay.

[4] = tested on: peripheral blood mononuclear cells (PBMCs); assay: as above; assay type: cell-based, human; conditions: PBMCs from 3 donors treated for 2 hours
Description: as §1

[5] = tested on: HL-60 cells enriched with ^63Cu; assay: Cellular 63Cu and 65Cu levels by ICP-MS; assay type: cell-based, human; conditions: 100 nM, 0, 0.5, 3 and 9 hours, 10% FBS medium
Description: A complex of elesclomol with ^65Cu was prepared. HL-60 cells enriched with ^63Cu were treated with 100 nM elesclomol-^65Cu or 100 nM free ^65Cu for 0, 0.5, 3 and 9 hours in 10% FBS medium. Cellular ^63Cu and ^65Cu levels were measured by inductively coupled plasma mass spectroscopy (ICP-MS).

[6] = Pharmacokinetics of 1-hour infusion in humans; conditions: Human, 200 mg/m^2
Description: as §2

[7] = Mouse toxicity study of elesclomol salt continuously administered via Alzet pump; set-up: species or system mice of strain CD1; conditions: in vivo
Description: A total of 15 mice of strain CD1 were used for the toxicity study, of which 10 were in the elesclomol salt treatment group, and 5 were in the control group. Alzet pump was filled with a total of 200 μl of infusion solution and implanted subcutaneously within 1-2 hours. The infusion solution was continuously delivered for 7 days, and the pump was replaced with a new pump at day 8.

[8] = tested on: HL-60 cells; assay: Cellular copper and elesclomol levels after elesclomol incubation; assay type: cell-based, human; conditions: 100 nM, 3 hours
Description: PBMCs and HL-60 cells were incubated with a vehicle (DMSO) or with 100 nM elesclomol for 3 hours. Subsequent to incubation, cellular copper levels and elesclomol levels for PBMCs and HL-60 cells were determined and are shown in FIG. 3.

CN1C(c2ccccc2)=[S][Cu]23[S]=C(c4ccccc4)N(C)[N]2C(=O)CC(=O)[N]13 [Elesclomol-Cu]
ROS levels (MitoSox Red) [1]: induces ROS in HL-60-derived mitochondria
Exposure/day ([2]; mouse, in vivo, 32 mg/kg/day): 516 h * ng/mL/d
Exposure/day ([2]; mouse, in vivo, iv, 50 mg/kg): 670 h * ng/mL/d
relative copper levels in the nuclear, cytosolic and mitochondrial fractions [3]: copper levels increased only in HL-60 cells, particularly, in the mitochondrial fraction
relative copper levels in the nuclear, cytosolic and mitochondrial fractions [4]: increased only in HL-60 cells

CN1C(c2ccccc2)=[S][65Cu]23[S]=C(c4ccccc4)N(C)[N]2C(=O)CC(=O)[N]13 [elesclomol-^65Cu]
accumulation of ^63Cu in cells [5]: cause accumulation of ^63Cu in HL-60 cancer cells
amount of copper accumulated in the cells versus length of exposure [5]: directly proportional to the length of time

CN(NC(=O)CC(=O)NN(C)C(=S)c1ccccc1)C(=S)c1ccccc1 [elesclomol, Elesclomol]
Exposure/day [6]: 4938 h * ng/mL/d
overall toxicity / adverse effects [7]: not associated with acute toxicity
cellular copper levels ([8]; HL-60 cells): remarkably and selectively elevated
cellular elesclomol levels ([8]; HL-60 cells compared with PBMCs): slightly lower than that in PBMCs
Exposure/day ([2]; Mouse, elesclomol salt I.V. bolus, 50 mg/kg): 5140 h * ng/mL/d
Exposure/day ([2]; Mouse, elesclomol salt by continuous infusion (pump), 32 mg/kg/d, calculated from plasma levels at 70 hours post pump implantation): 1183 h * ng/mL/d
